Values joined by “and” are separate entries in the source; they are usually repeats but may differ in a detail not shown here. Equal entries are not always repeated. Where two headings read alike, the source gives them in different places.
Assays:
[1] = test system: H1650 (lung adenocarcinoma); experiment: Cell viability analysis (WST-1), lung cancer cell line H1650; type: cell-based; details: Homo sapiens
Protocol: (§1) The cell numbers were counted and reseed as 2×10^6 in cell culture plate/flask. Then, the culture medium was added to a volume of 10 ml, and the cells were cultured for 2-3 days. Then, the cells were suspended for loading into 96-well plates. The cell number was 3000/well and the volume of the culture medium was 100 μl each well.
(§2) Removing the original culture medium from 96-well plate. Then add 100 μl of commercially drug at a concentration of 10 μM per well. After 72 hours, add the diluted WST-1 reagent to the well with 100 μl/well, and the diluted WST-1 reagent was acquired from the dilution of 9:1 medium and WST-1 stock reagent. Finally, the total volume of each well was 200 μl/well. Culture the 96-well plate at 37° C. for 30 to 90 minutes. Detecting and calculate the survival rate of each cancer cells with an ELISA reader at OD450 nm.

lung cancer cell = experiment: Summary of the effect on lung cancer cell (A549, H1650); type: cell-based; details: lung cancer cell (mean of A549 and H1650 averages), 72 hours, read-out: Inhibitory effect
Protocol: as §2

[2] = test system: HCT116-wt (colorectal carcinoma); experiment: Cell viability analysis (WST-1), colorectal cancer cell line HCT116-wt; type: cell-based
Protocol: as §1, §2

[3] = test system: gastric cancer cells (AGS) subcutaneous tumor; experiment: Animal model test of gastric cancer: tumor size; type: in vivo, mice (BALB/cAnN.Cg-Foxn1nu/CrlNarl); details: for Tumor volume growth, average / tumor volume, average: group average; for Tumor volume growth / tumor longest length / tumor volume / tumor width: individual mice A, B, C
Protocol: In this invention, the female mice were (BALB/cAnN.Cg-Foxn1^nu/CrlNarl) purchased from National Laboratory Animal Center (Taiwan)). The weight of the mice were 21±1 g. These mice were subcutaneously injected with gastric cancer cells (AGS) and then put these mice into different cages at random. The drug test experiment was divided into three groups, include “control group”, “low dose group (100 mg/kg/day)”, and “high dose group (200 mg/kg/day)”. These mice were then injected test drug intraperitoneally once daily […]. The tumor sizes and body weight were measured twice a week. The tumor sizes were measured and calculated by formula: (L×W^2)/2. L represents the tumor longest length. W represents the tumor shortest diameter.

hepatic cancer cell = experiment: Summary of the effect on hepatic cancer cell (HepG2, Hep3B); type: cell-based; details: hepatic cancer cell (mean of HepG2 and Hep3B averages), 72 hours, read-out: Inhibitory effect
Protocol: as §2

cervical cancer cell = experiment: Summary of the effect on cervical cancer cell (HeLa, C-33A); type: cell-based; details: cervical cancer cell (mean of HeLa and C-33A averages), 72 hours, read-out: Inhibitory effect
Protocol: as §2

colorectal cancer cell = experiment: Summary of the effect on colorectal cancer cell (HCT116-wt, LoVo); type: cell-based; details: Homo sapiens, colorectal cancer cell (mean of HCT116-wt and LoVo averages), 72 hours, read-out: Inhibitory effect
Protocol: as §2

[4] = Cell viability analysis (WST-1), human fibroblast cell line HFW; type: cell-based; details: HFW fibroblast cells (normal)
Protocol: as §1, §2

[5] = test system: T24 (bladder cancer cell line); experiment: Cell viability analysis (WST-1), bladder cancer cell line T24; type: cell-based; details: T24, 10 μM
Protocol: as §1, §2

ovarian cancer cell = experiment: Summary of the effect on ovarian cancer cell (NIH-OVCAR-3, TOV-21G); type: cell-based; details: ovarian cancer cell (mean of NIH-OVCAR-3 and TOV-21G averages), 72 hours, read-out: Inhibitory effect
Protocol: as §2

[6] = test system: BCC (basal cell carcinoma); experiment: Cell viability analysis (WST-1), skin cancer cell line BCC; type: cell-based
Protocol: as §1, §2

[7] = 72 h, average of 4 tests, read-out: inhibition effect (survival rate of cells), average
[8] = 72 hours, test 0602-30 min, read-out: inhibition effect (survival rate of cells)
[9] = 72 hours, test 0605-10 min, read-out: inhibition effect (survival rate of cells)
[10] = 72 hours, test 0607-10 min, read-out: inhibition effect (survival rate of cells)
[11] = 72 hours, test 0609-10 min, read-out: inhibition effect (survival rate of cells)
[12] = high dose (200 mg/kg/day) i.p. once daily, Fifth measurement
[13] = high dose (200 mg/kg/day) i.p. once daily, First measurement
[14] = high dose (200 mg/kg/day) i.p. once daily, First measurement, 200 mg/kg/day
[15] = high dose (200 mg/kg/day) i.p. once daily, Fourth measurement
[16] = high dose (200 mg/kg/day) i.p. once daily, Second measurement
[17] = high dose (200 mg/kg/day) i.p. once daily, Second measurement, 200 mg/kg/day
[18] = high dose (200 mg/kg/day) i.p. once daily, Third measurement
[19] = high dose (200 mg/kg/day) i.p. once daily, Third measurement, 200 mg/kg/day
[20] = low dose (100 mg/kg/day) i.p. once daily, Fifth measurement
[21] = low dose (100 mg/kg/day) i.p. once daily, Fifth measurement, 100 mg/kg/day
[22] = low dose (100 mg/kg/day) i.p. once daily, First measurement
[23] = low dose (100 mg/kg/day) i.p. once daily, First measurement, 100 mg/kg/day
[24] = low dose (100 mg/kg/day) i.p. once daily, Fourth measurement
[25] = low dose (100 mg/kg/day) i.p. once daily, Fourth measurement, 100 mg/kg/day
[26] = low dose (100 mg/kg/day) i.p. once daily, Second measurement
[27] = low dose (100 mg/kg/day) i.p. once daily, Second measurement, 100 mg/kg/day
[28] = low dose (100 mg/kg/day) i.p. once daily, Third measurement
[29] = low dose (100 mg/kg/day) i.p. once daily, Third measurement, 100 mg/kg/day

## Oc1ccc(OCc2ccccc2)cc1 [Monobenzone]
[1]; NCI-H1650, 72 h, H1650, 10 μM, average of 4 tests, read-out: inhibition effect (survival rate of cells), Average
  viability at 10 µM: 86.3%
[1]; NCI-H1650, H1650, 10 μM, 72 hours, test 1-10 min, read-out: inhibition effect (survival rate of cells)
  viability at 10 µM: 90.1%
[1]; NCI-H1650, H1650, 10 μM, 72 hours, test 2-20 min, read-out: inhibition effect (survival rate of cells)
  viability at 10 µM: 66.6%
[1]; NCI-H1650, H1650, 10 μM, 72 hours, test 3-20 min, read-out: inhibition effect (survival rate of cells)
  viability at 10 µM: 86.7%
[1]; NCI-H1650, H1650, 10 μM, 72 hours, test 4-20 min, read-out: inhibition effect (survival rate of cells)
  viability at 10 µM: 102%
Lung cancer cell
  viability at 10 µM: 89.8%
[2]; [7]
  viability at 10 µM: 95%
[2]; [8]
  viability at 10 µM: 91.1%
[2]; [9]
  viability at 10 µM: 104%
[2]; [10]
  viability at 10 µM: 99.9%
[2]; [11]
  viability at 10 µM: 85.3%
[3]; both low dose (100 mg/kg/day) and high dose (200 mg/kg/day), FIG. 2
  inhibition effect on tumor cells (in words): significant inhibition effect on tumor cells
[3]; [12]
  Tumor volume growth, average: 0 mm3
  tumor volume, average: 0 mm3
  Tumor volume growth: 0 mm3
  tumor longest length: 0 mm
  tumor volume: 0 mm3
  tumor width: 0 mm
[3]; [13]
  Tumor volume growth, average: 25.67 mm3
  tumor volume, average: 25.67 mm3
[3]; [14]
  Tumor volume growth: 18 mm3 and 27 mm3 and 32 mm3
  tumor longest length: 4 mm (2×) and 6 mm
  tumor volume: 18 mm3 and 27 mm3 and 32 mm3
  tumor width: 3 mm (2×) and 4 mm
[3]; [15]
  Tumor volume growth, average: −50 mm3
  tumor volume, average: 0 mm3
  tumor longest length: 0 mm
  tumor volume: 0 mm3
  tumor width: 0 mm
[3]; high dose (200 mg/kg/day) i.p. once daily, Fourth measurement, 200 mg/kg/day
  Tumor volume growth: −87.5 mm3 and −62.5 mm3 and 0 mm3
[3]; [16]
  Tumor volume growth, average: 57.67 mm3
  tumor volume, average: 83.33 mm3
  tumor width: 5 mm
[3]; [17]
  Tumor volume growth: 69.5 mm3 and 48 mm3 and 55.5 mm3
  tumor longest length: 7 mm (2×) and 6 mm
  tumor volume: 87.5 mm3 (2×) and 75 mm3
[3]; [18]
  Tumor volume growth, average: −33.3333 mm3
  tumor volume, average: 50 mm3
[3]; [19]
  Tumor volume growth: 0 mm3 and −12.5 mm3 and −87.5 mm3
  tumor longest length: 7 mm and 5 mm and 0 mm
  tumor volume: 87.5 mm3 and 62.5 mm3 and 0 mm3
  tumor width: 5 mm (2×) and 0 mm
[3]; high dose (200 mg/kg/day), FIG. 3
  effect on tumor volume growth (in words): effectively slow down the tumor volume growth, and can also reduce the tumor volume
[3]; [20]
  Tumor volume growth, average: 2.667 mm3
  tumor volume, average: 22 mm3
[3]; [21]
  Tumor volume growth: 0 mm3 (2×) and 8 mm3
  tumor longest length: 4 mm and 6 mm and 0 mm
  tumor volume: 18 mm3 and 48 mm3 and 0 mm3
  tumor width: 3 mm and 4 mm and 0 mm
[3]; [22]
  Tumor volume growth, average: 176.3333 mm3
  tumor volume, average: 176.3333 mm3
[3]; [23]
  Tumor volume growth: 256 mm3 and 147 mm3 and 126 mm3
  tumor longest length: 8 mm and 6 mm and 7 mm
  tumor volume: 256 mm3 and 147 mm3 and 126 mm3
  tumor width: 8 mm and 7 mm and 6 mm
[3]; [24]
  Tumor volume growth, average: −88 mm3
  tumor volume, average: 19.33 mm3
[3]; [25]
  Tumor volume growth: −108 mm3 and −68 mm3 and −88 mm3
  tumor longest length: 4 mm and 5 mm and 0 mm
  tumor volume: 18 mm3 and 40 mm3 and 0 mm3
  tumor width: 3 mm and 4 mm and 0 mm
[3]; [26]
  Tumor volume growth, average: −77.5 mm3
  tumor volume, average: 98.83 mm3
[3]; [27]
  Tumor volume growth: −130 mm3 and −39 mm3 and −63.5 mm3
  tumor longest length: 7 mm and 6 mm and 5 mm
  tumor volume: 126 mm3 and 108 mm3 and 62.5 mm3
  tumor width: 6 mm (2×) and 5 mm
[3]; [28]
  Tumor volume growth, average: 0 mm3
  tumor volume, average: 98.83 mm3
  Tumor volume growth: 0 mm3
[3]; [29]
  tumor longest length: 7 mm and 6 mm and 5 mm
  tumor volume: 126 mm3 and 108 mm3 and 62.5 mm3
  tumor width: 6 mm (2×) and 5 mm
Hepatic cancer cell
  viability at 10 µM: 95.4%
Cervical cancer cell
  viability at 10 µM: 71.2%
Colorectal cancer cell
  viability at 10 µM: 89%
[4]; average of 4 tests, read-out: inhibition effect (survival rate of cells), average
  viability at 72 h, 10 µM: 85.4%
[4]; test 0612-10 min, read-out: inhibition effect (survival rate of cells)
  viability at 72 h, 10 µM: 120%
[4]; test 0614-10 min, read-out: inhibition effect (survival rate of cells)
  viability at 72 h, 10 µM: 74.9%
[4]; test 0616-10 min, read-out: inhibition effect (survival rate of cells)
  viability at 72 h, 10 µM: 68.1%
[4]; test 0619-10 min, read-out: inhibition effect (survival rate of cells)
  viability at 72 h, 10 µM: 79.1%
[5]; [7]
  viability at 10 µM: 87%
[5]; 72 hours, test T24-1-30 min, read-out: inhibition effect (survival rate of cells)
  viability at 10 µM: 93.5%
[5]; 72 hours, test T24-2-20 min, read-out: inhibition effect (survival rate of cells)
  viability at 10 µM: 70.4%
[5]; 72 hours, test T24-3-20 min, read-out: inhibition effect (survival rate of cells)
  viability at 10 µM: 89.4%
[5]; 72 hours, test T24-4-20 min, read-out: inhibition effect (survival rate of cells)
  viability at 10 µM: 94.7%
Ovarian cancer cell
  viability at 10 µM: 85%
[6]; 72 h, average of 4 tests, read-out: inhibition effect (survival rate of cells), Average
  viability at 10 µM: 50.1%
[6]; [8]
  viability at 10 µM: 48.2%
[6]; [9]
  viability at 10 µM: 59.8%
[6]; [10]
  viability at 10 µM: 38.6%
[6]; [11]
  viability at 10 µM: 53.8%

— patent US10098852B2 (LAUNX BIOMEDICAL CO., LTD., priority 2014, dated 2018)
